Results on three compounds are retold here after US8247170B2, “Detection of penicillin tolerance in Group B Streptococcus: single nucleotide polymorphisms in penicillin binding protein 4” (priority 2008, dated 2012).

For the assay, the system named is GBS laboratory strains. Nature of the assay: MBC90:MIC90 ratio method of determining antibiotic tolerance. As to conditions: for MBC / MIC / MIC90: Streptococcus; for MBC: 24 h, ≧90% non-viable cells, plate counts after 24 h antibiotic; for MIC: ≧90% growth-inhibited, OD600; for MIC90: for GBS, as stated under culture conditions. Format: cell-based, Group B Streptococcus. On the procedure: The inventors ascertained the incidence of antibiotic tolerance in GBS clinical isolates collected from cervicovaginal-rectal swabs, by investigating cell wall inhibitors used to eliminate GBS colonization in pregnant women before delivery as stated by the CDC guidelines. A ratio of the minimum bactericidal concentration (MBC) over minimum inhibitory concentration (MIC) after 24 h of antibiotic incubation or by determining quantitative kill curves has been used to define antibiotic tolerance previously.
The MBC:MIC ratio was calculated for laboratory strains using three β-lactam antibiotics (Penicillin G, Ampicillin, and Cefazolin) and a glycopeptide antibiotic (Vancomycin) (Table 1). Early-log phase cultures of GBS were treated with the individual antibiotics at a concentration of 0.25 to 512×MIC90. The optical density (OD600) of antibiotic treated cultures was used to determine the MIC90 after 24 h and a cell count was used to determine their MBC90. Susceptible, tolerant and intermediate strains were defined by their MBC:MIC ratio of ≦2:1, ≧32:1 and 4:1-16:1 respectively. […] The ratios characterized GBS strains A909 and 2603V/R as Susceptible, O90R as Tolerant, and NEM316 as Intermediate to Penicillin, Ampicillin, and Cefazolin. All four strains were susceptible to Vancomycin.
(I) Bacterial Strains and Culture Conditions. GBS strains A909 (serotype IA), 515 (serotype IA), NEM316 (serotype III), COHI (serotype III), 2603V/R (serotype V) and O90R (non-typable) were used in this study. E. coli Top10 cells were used for the recombination experiments. GBS was cultured in Todd Hewitt broth (THB) or Tryptic Soy 5% sheep blood (TS) media and E. coli in Luria-broth (LB) medium or agar. Antibiotics were used at the following concentrations: for GBS—penicillin G (MIC90 0.06 μg ml^−1), ampicillin (MIC90 0.12 μg ml^−1), vancomycin (MIC90 2 μg ml^−1), cefazolin (MIC90 1 μg ml^−1) and chloramphenicol (5 μg ml^−1); for E. coli—ampicillin (50 μg ml^−1) and chloramphenicol (5 μg ml^−1). Both GBS and E. coli cultures were grown at 37° C. (II) Tolerance Using the MBC:MIC Ratio Method. Three GBS laboratory strains (i.e., A909, NEM316, and O90R) were cultured overnight for 18 h at 37° C. in THB. Subcultures in THB were subsequently grown to exponential phase (OD600˜0.3; i.e. 5×10^5 cfu/ml) at 37° C. Cell cultures were then exposed to different concentrations of antibiotics (Penicillin G, Ampicillin, Cefozolin or Vancomycin). […] Cell cultures were dispersed every 18 h before OD600 was measured to determine the lowest concentration of antibiotic with 90% growth inhibition (MIC90). Antibiotic treated cells (8 μl) from each well were re-suspended into PBS (100 μl) and plated (54 μl) on TS agar plates and allowed to grow for an additional 24 h at 37° C. Cell count was performed to determine the lowest concentration of antibiotic with 90% killing of original inoculums (MBC90). (III) Penicillin Killing and Regrowth Tolerance Assay by Microbroth Dilution. Three GBS laboratory strains (i.e., A909, NEM316, and O90R) were cultured overnight for 18 h at 37° C. in THB. Subcultures in THB were subsequently grown to exponential phase (OD600˜0.3) at 37° C. Cell cultures were then exposed to different concentrations of Penicillin G (Sigma, St. Louis, Mo.). […] Cell cultures were dispersed. A 1:20 dilution of cells was re-plated into new wells containing fresh THB with 500 U Penase (to degrade residual penicillin). Cell cultures were allowed to re-grow for an additional 24 h at 37° C. before the OD600 was measured. (IV) Measuring Cell Viability by Determining ATP Concentration. GBS strains were cultured for 18 h at 37° C. in THB. These cells were inoculated into fresh THB and subsequently allowed to grow to exponential phase (OD600 0.25-0.3) at 37° C. One ml of each culture was centrifuged at 5,000×g for 4 min. The cell pellet was re-suspended in ATP-free water. […]

The term MBC denotes the lowest tested concentration that kills the bacteria rather than only halting them. One may read the MIC as the least concentration at which growth counts as inhibited. A word on the MIC90: it is an inhibitory concentration at the 90% level, which refers to growth in some studies and to a panel of isolates in others.

For the compound `CC1(C)S[C@@H]2[C@H](NC(=O)[C@H](N)c3ccccc3)C(=O)N2[C@H]1C(=O)O` [Ampicillin], the MIC90 was 0.12 µg/mL. Further, for the setting “GBS strain 2603V/R”, the “Ratio (MBC90:MIC90)” value turned out to be 1, the MBC was 0.48 µg/mL and the MIC was found to be 0.48 µg/mL. In addition, under “GBS strain A909”, the “Ratio (MBC90:MIC90)” value was determined as 1, the minimal bactericidal concentration (MBC) came out at 0.48 µg/mL and the minimum inhibitory concentration (MIC) is 0.48 µg/mL. In addition, under “GBS strain NEM316”, the “Ratio (MBC90:MIC90)” value came out at 4, the MBC is 1.92 µg/mL and the MIC amounted to 0.48 µg/mL. Moreover, where the note is “GBS strain O90R”, the MBC is 15.4 µg/mL and the MIC was 0.96 µg/mL.

With `Cc1nnc(SCC2=C(C(=O)O)N3C(=O)[C@@H](NC(=O)Cn4cnnn4)[C@H]3SC2)s1` [Cefazolin], the MIC90 was 1 µg/mL. In addition, under “GBS strain 2603V/R”, the “Ratio (MBC90:MIC90)” value is recorded as 2, the minimum bactericidal concentration (MBC) worked out at 0.39 µg/mL and the MIC is 0.19 µg/mL. Further, under “GBS strain A909”, the “Ratio (MBC90:MIC90)” value was found to be 1, the MBC was 0.19 µg/mL and the MIC is 0.19 µg/mL. For the setting “GBS strain NEM316”, the “Ratio (MBC90:MIC90)” value was found to be 16, the MBC came to 3.12 µg/mL and the MIC was determined as 0.19 µg/mL. Where the note is “GBS strain O90R”, the “Ratio (MBC90:MIC90)” value is recorded as 32, the MBC worked out at 12.5 µg/mL and the MIC worked out at 0.39 µg/mL.

Turning to `CN[C@H](CC(C)C)C(=O)N[C@H]1C(=O)N[C@@H](CC(N)=O)C(=O)N[C@H]2C(=O)N[C@H]3C(=O)N[C@H](C(=O)N[C@H](C(=O)O)c4cc(O)cc(O)c4-c4cc3ccc4O)[C@H](O)c3ccc(c(Cl)c3)Oc3cc2cc(c3O[C@@H]2O[C@H](CO)[C@@H](O)[C@H](O)[C@H]2O[C@H]2C[C@](C)(N)[C@H](O)[C@H](C)O2)Oc2ccc(cc2Cl)[C@H]1O` [Vancomycin], the MIC90 stood at 2 µg/mL. For the setting “GBS strain 2603V/R”, the “Ratio (MBC90:MIC90)” value was determined as 1, the MBC was 4 µg/mL and the MIC was found to be 4 µg/mL. Under “GBS strain A909”, the “Ratio (MBC90:MIC90)” value was 1, the MBC stood at 4 µg/mL and the MIC stood at 4 µg/mL. For the same compound, where the note is “GBS strain NEM316”, the “Ratio (MBC90:MIC90)” value worked out at 1, the MBC is 4 µg/mL and the MIC amounted to 4 µg/mL. Further, where the note is “GBS strain O90R”, the “Ratio (MBC90:MIC90)” value is 1, the MBC worked out at 4 µg/mL and the MIC amounted to 4 µg/mL.
